Test system: 616215-338-R-J1-PDC tumor spheroids, viability
Assay: Anticancer human tumor 616215-338-R-J1-PDC patient-derived colon adenocarcinoma cell line growth inhibition [GQUAD]
Conditions: spheroids with HUVEC and MSC; for IC50: curve of first compound; for viability, T/C: stronger effect = lower value
Excerpt: DNA G-quadruplex Stabilizer Agents in Combinations in Complex Spheroids
A high-throughput screen of multi-cell type tumor spheroids was designed to identify active combinations of DNA G-quadruplex stabilizer agents and targeted small molecules. Complex spheroids include a stromal component modeled by human endothelial cells (HUVEC) and fibroblasts modeled by human mesenchymal stem cells (MSCs). The concentration ranges selected for each drug and investigational agent were based upon clinically achievable concentrations if the clinical Cmax of the agent was known.
Compounds. The drugs and investigational agents: pidnarulex (CX-5461; NSC782164), APTO-253 (NSC789042), BRACO-19 (NSC847499), peposertib (NSC802822), ceralasertib (NSC780249), elimusertib (NSC800525), camonsertib (NSC841442), AZD-1390 (NSC803789), olaparib (NSC753686), talazoparib (NSC767125), ART-558 (NSC835418), sotorasib (NSC818433), MRTX-1133 (NSC836407), SN-38 (NSC673596), topotecan (NSC609699), etoposide (NSC141540), doxorubicin (NSC123127), gemcitabine (NSC613327), 5-fluorouracil (NSC19893), paclitaxel (NSC125973), vemurafenib (NSC761431), panobinostat (NSC761190), R-306465 (JNJ-16241199; NSC773264), adavosertib (NSC754352), TP-3654 (NSC805149), carboplatin (NSC241240), KSQ-4279 (NSC840948), and staurosporine (NSC755774) were obtained from the National Cancer Institute (NCI) Developmental Therapeutics Program Chemical Repository (34). The FDA-approved anticancer drug set is available from the NCI Developmental Therapeutics Program. […] The stock solutions were prepared in dimethyl sulfoxide (DMSO, Sigma-Aldrich, St. Louis, MO, cat. D2650) at 800-fold the tested concentration and stored at -70 degrees C prior to their use. All drugs and investigational agents were tested over a range starting from a high concentration at or near the clinical Cmax and decreasing in half-log increments. If the clinical Cmax for an agent had not been determined, the highest concentration tested was 10 microM.
2.3 Cell Culture. All cells were maintained in an incubator at 37 degrees C and 5% CO2 with 95% humidity. The PDC lines were cultured according to standard operating procedures established by the NCI PDMR. All PDCs were thawed and cultured in Matrigel-coated flasks prepared with a working solution of 1X Ham's F-12 nutrient mix, without supplementation (Invitrogen, cat. 11765054), 100 U/mL penicillin-streptomycin (Invitrogen, cat. 15140122), and 2.5% Matrigel (Corning Inc., cat. 354248) for the first three passages. The 857933-349-R-J2-PDC line was cultured in 6C/Colon 1B media, which includes advanced DMEM/F-12 (Thermo Fisher Scientific, cat. 12634028), 10 mM HEPES (Thermo Fisher Scientific, cat. 15630080), 1X GlutaMAX supplement (Thermo Fisher Scientific, cat. 35050061), 0.1 mg/mL primocin (InvivoGen, cat. ant-pm-2), 10% defined fetal bovine serum, heat inactivated (HyClone Laboratories Inc., cat. SH30070.03HI), 50% L-WRN conditioned media (ATCC, cat. CRL-3276), 1.25 mM N-Acetyl-L-cysteine (Sigma-Aldrich, cat. A9165), 10 mM nicotinamide (Sigma-Aldrich, cat. N0636), 1X B-27 supplement (Thermo Fisher Scientific, cat. 17504044), 1X N-2 supplement (Thermo Fisher Scientific, cat. 17502048), 10 microM Y-27632 dihydrochloride (Tocris Bioscience, cat. 1254), and 50 ng/mL human EGF recombinant protein (Thermo Fisher Scientific, cat. PHG0311). The 485176-168-R4-J1-PDC line was cultured in Panc media, which includes all 6C/Colon 1B media components plus 100 ng/mL human FGF-10 (Thermo Fisher Scientific, cat. 100-26), 500 nM SB-431542 (Selleckchem, cat. S1067), and gastrin (Tocris, cat. 3006).
[…]

[1] = second compound 0.0316 µM, first compound 0.0316 µM
[2] = second compound 0.0316 µM, first compound 0.316 µM
[3] = second compound 0.1 µM, first compound 0.0316 µM
[4] = second compound 0.1 µM, first compound 0.316 µM
[5] = second compound 0.316 µM, first compound 0.0316 µM
[6] = second compound 0.316 µM, first compound 0.316 µM
[7] = second compound 1 µM, first compound 0.0316 µM
[8] = second compound 1 µM, first compound 0.316 µM
[9] = second compound 3.16 µM, first compound 0.0316 µM
[10] = second compound 3.16 µM, first compound 0.316 µM
[11] = second compound 10 µM, first compound 0.0316 µM
[12] = second compound 10 µM, first compound 0.316 µM
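Further: spheroids exposed to agents for 7 days before readout.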
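Wherever viability, T/C is given: percent viability relative to DMSO vehicle control wells taken as 100%.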

`CCc1c2c(nc3ccc(O)cc13)-c1cc3c(c(=O)n1C2)COC(=O)[C@]3(O)CC` + CN(C)c1ccc(Nc2c3ccc(NC(=O)CCN4CCCC4)cc3nc3cc(NC(=O)CCN4CCCC4)ccc23)cc1 showed an IC50 (second compound 0.0316 µM) of 14.3 nM, an IC50 (second compound 0.1 µM) of 17.4 nM and an IC50 (second compound 0.316 µM) of 14.6 nM. For the same molecule, the IC50 (second compound 1 µM) was 12.4 nM, the IC50 (second compound 3.16 µM) was 11.3 nM and the IC50 (second compound 10 µM) was 8.62 nM. For the same molecule, the viability, T/C (second compound 0.0316 µM, first compound 0.000999 µM) was 93.8%, the viability, T/C (second compound 0.0316 µM, first compound 0.00316 µM) was 92.4% and the viability, T/C (second compound 0.0316 µM, first compound 0.00999 µM) was 53.7%. The viability, T/C [1] was 32.6%, the viability, T/C (second compound 0.0316 µM, first compound 0.0999 µM) was 18.1% and the viability, T/C [2] was 8.35%. For the same molecule, the viability, T/C (second compound 0.1 µM, first compound 0.000999 µM) was 112%, the viability, T/C (second compound 0.1 µM, first compound 0.00316 µM) was 99.8% and the viability, T/C (second compound 0.1 µM, first compound 0.00999 µM) was 70.3%. It also gave a viability, T/C [3] of 28.9%, a viability, T/C (second compound 0.1 µM, first compound 0.0999 µM) of 13.8% and a viability, T/C [4] of 12.4%. For the same molecule, the viability, T/C (second compound 0.316 µM, first compound 0.000999 µM) was 101%, the viability, T/C (second compound 0.316 µM, first compound 0.00316 µM) was 96.7% and the viability, T/C (second compound 0.316 µM, first compound 0.00999 µM) was 59.9%. For the same molecule, the viability, T/C [5] was 27%, the viability, T/C (second compound 0.316 µM, first compound 0.0999 µM) was 18% and the viability, T/C [6] was 8.81%. It also gave a viability, T/C (second compound 1 µM, first compound 0.000999 µM) of 97.3%, a viability, T/C (second compound 1 µM, first compound 0.00316 µM) of 94.3% and a viability, T/C (second compound 1 µM, first compound 0.00999 µM) of 46.9%. For the same molecule, the viability, T/C [7] was 35%, the viability, T/C (second compound 1 µM, first compound 0.0999 µM) was 20.5% and the viability, T/C [8] was 10.3%. The viability, T/C (second compound 3.16 µM, first compound 0.000999 µM) was 98.3%, the viability, T/C (second compound 3.16 µM, first compound 0.00316 µM) was 86.8% and the viability, T/C (second compound 3.16 µM, first compound 0.00999 µM) was 49.3%. For the same molecule, the viability, T/C [9] was 30.2%, the viability, T/C (second compound 3.16 µM, first compound 0.0999 µM) was 19.3% and the viability, T/C [10] was 12.6%. It also gave a viability, T/C (second compound 10 µM, first compound 0.000999 µM) of 95.7%, a viability, T/C (second compound 10 µM, first compound 0.00316 µM) of 73.9% and a viability, T/C (second compound 10 µM, first compound 0.00999 µM) of 46%. For the same molecule, the viability, T/C [11] was 25.9%, the viability, T/C (second compound 10 µM, first compound 0.0999 µM) was 13.2% and the viability, T/C [12] was 8.62%.

Work on `COc1cc(C2c3cc4c(cc3C(OC3OC5COC(C)OC5C(O)C3O)C3COC(=O)C23)OCO4)cc(OC)c1O` (centres undefined) + CN(C)c1ccc(Nc2c3ccc(NC(=O)CCN4CCCC4)cc3nc3cc(NC(=O)CCN4CCCC4)ccc23)cc1 yielded an IC50 (second compound 0.0316 µM) of 967 nM, an IC50 (second compound 0.1 µM) of 655 nM and an IC50 (second compound 0.316 µM) of 693 nM. It also gave an IC50 (second compound 1 µM) of 762 nM, an IC50 (second compound 3.16 µM) of 644 nM and an IC50 (second compound 10 µM) of 491 nM. It also gave a viability, T/C [1] of 99.3%, a viability, T/C (second compound 0.0316 µM, first compound 0.1 µM) of 103% and a viability, T/C [2] of 67.8%. For the same molecule, the viability, T/C (second compound 0.0316 µM, first compound 1 µM) was 51.9%, the viability, T/C (second compound 0.0316 µM, first compound 3.16 µM) was 31.9% and the viability, T/C (second compound 0.0316 µM, first compound 10 µM) was 20.7%. For the same molecule, the viability, T/C [3] was 94.7%, the viability, T/C (second compound 0.1 µM, first compound 0.1 µM) was 107% and the viability, T/C [4] was 71.6%. For the same molecule, the viability, T/C (second compound 0.1 µM, first compound 1 µM) was 37.5%, the viability, T/C (second compound 0.1 µM, first compound 3.16 µM) was 31% and the viability, T/C (second compound 0.1 µM, first compound 10 µM) was 18.7%. The viability, T/C [5] was 100%, the viability, T/C (second compound 0.316 µM, first compound 0.1 µM) was 95.6% and the viability, T/C [6] was 63.4%. It also gave a viability, T/C (second compound 0.316 µM, first compound 1 µM) of 41%, a viability, T/C (second compound 0.316 µM, first compound 3.16 µM) of 33.1% and a viability, T/C (second compound 0.316 µM, first compound 10 µM) of 16.6%. The viability, T/C [7] was 100%, the viability, T/C (second compound 1 µM, first compound 0.1 µM) was 91.6% and the viability, T/C [8] was 58.5%. For the same molecule, the viability, T/C (second compound 1 µM, first compound 1 µM) was 44.6%, the viability, T/C (second compound 1 µM, first compound 3.16 µM) was 34.3% and the viability, T/C (second compound 1 µM, first compound 10 µM) was 14.2%. It also gave a viability, T/C [9] of 96.4%, a viability, T/C (second compound 3.16 µM, first compound 0.1 µM) of 85% and a viability, T/C [10] of 55.9%. The viability, T/C (second compound 3.16 µM, first compound 1 µM) was 43.6%, the viability, T/C (second compound 3.16 µM, first compound 3.16 µM) was 31.6% and the viability, T/C (second compound 3.16 µM, first compound 10 µM) was 15.9%. The viability, T/C [11] was 97.2%, the viability, T/C (second compound 10 µM, first compound 0.1 µM) was 83.2% and the viability, T/C [12] was 52.6%. The viability, T/C (second compound 10 µM, first compound 1 µM) was 40%, the viability, T/C (second compound 10 µM, first compound 3.16 µM) was 25.9% and the viability, T/C (second compound 10 µM, first compound 10 µM) was 15%.
